Usually EC50 stands for the concentration needed to bring the measured effect to its halfway point.

Some results are limits rather than exact numbers.

Holding throughout (format): cell-based
Test [1] has as its target T1, wild-type EGFR transformed Ba/F3 cells (Homo sapiens, UniProt P00533).
T1 construct: expressed in transfected cells; host or cells: Ba/F3
Description: Proliferation inhibition assay, wild-type EGFR transformed Ba/F3 cells. As to conditions: MTS assay, 72 hours. Put shortly: (§1)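 Transformed Ba/F3 cells are seeded, then treated with compound across 3.3 nM to 10 μM. After 72 hours, viability is measured by MTS. Sigmoidal nonlinear regression of the growth curves gives the inhibition values.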
For orientation: Tetrazolium dyes change colour on reduction, which living cells bring about.

Test [2] has as its target T2, EGFR InsGY (D770delinsGY) transformed Ba/F3 cells (Homo sapiens, UniProt P00533, D770Y/INS769G).
T2 construct: expressed in transfected cells; host or cells: Ba/F3
Description: Proliferation inhibition assay, EGFR InsGY transformed Ba/F3 cells. As to conditions: MTS assay, 72 hours. As to the method:
(§2) Cell growth inhibition can be assessed by MTS assay or by Cell Titer Glo Luminescent Cell viability assay (Promega®). Cells are seeded and grow in culture plates before they are exposed to representative compounds of the application for various duration. The viability of the cells are then assessed. […] The growth curves can be fitted using a nonlinear regression model with sigmoidal dose response.
(§3) Cell growth inhibition was assessed by MTS assay for Ba/F3, DFCI58-229, and DFCI127c cells, or by Cell Titer Glo Luminescent Cell viability assay (Promega®) for DFC1362JC cells, 3000 Ba/F3 cells were seeded for per well in 96-well plates, and were exposed to representative compounds of the application (3.3 nM to 10 μM) for 72 hours. For DFCI58-229, DFCI127c, and DFC1362JC cells, 5000 cells were seeded per well. All experimental points included 6 to 12 wells. […] The growth curves were fitted using a nonlinear regression model with sigmoidal dose response.
(§4) Activities of representative compounds of the present application in inhibiting EGFR and HER2 were tested by MTS assay (for Ba/F3 cell, DFCI58-229 cell, and DFCI127c cells) or by CellTiter-Glot luminescent cell viability assay (for DFCI362JC cells). For assays with Ba/F3 cells, 3000 cells were seeded for per well in 96-well plates and were exposed to indicated compounds with a concentration of 3.3 to 10 μM for 72 hours. For assays with DFCI58-229 cell, DFCI127c cell, or DFCI362JC cell, 5000 cells were seeded per well in 96-well plates and were exposed to indicated compounds with a concentration of 3.3 to 10 μM for 72 hours.

Test [3] addresses T3, EGFR InsSVD (D770_N771insSVD) transformed Ba/F3 cells (Homo sapiens, UniProt P00533, INS770SVD).
T3 construct: expressed in transfected cells; host or cells: Ba/F3
The experiment in a line: Proliferation inhibition assay, EGFR InsSVD transformed Ba/F3 cells. The conditions noted are these: MTS assay, 72 hours. In a few lines: (§5)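 Ba/F3 cells transformed with the listed EGFR or HER2 insertion mutants, 3000 per well, exposed to compounds (3.3 nM to 10 μM) for 72 hours. Viability read by MTS assay. Growth curves fitted by nonlinear regression with sigmoidal dose response; 6 to 12 wells per point.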

Test [4] has as its target T4, EGFR InsASV (V769_D770insASV) transformed Ba/F3 cells (Homo sapiens, UniProt P00533, INS769ASV).
T4 construct: expressed in transfected cells; host or cells: Ba/F3
Description: Proliferation inhibition assay, EGFR InsASV transformed Ba/F3 cells. As to conditions: MTS assay, 72 hours. Here is the method:
as §2, §3, §4

Test [5] deals with T5, EGFR InsHH (Y764_V765insHH) transformed Ba/F3 cells (Homo sapiens, UniProt P00533, INS764HH).
T5 construct: expressed in transfected cells; host or cells: Ba/F3
Description: Proliferation inhibition assay, EGFR InsHH transformed Ba/F3 cells. As to conditions: MTS assay, 72 hours. Here is the method:
as §2, §3, §4

Test [6] concerns the target T6, EGFR InsH transformed Ba/F3 cells (Homo sapiens, UniProt P00533, DUP773-773).
T6 construct: expressed in transfected cells; host or cells: Ba/F3
The experiment in a line: Proliferation inhibition assay, EGFR InsH transformed Ba/F3 cells. As to conditions: MTS assay, 72 hours. In a few lines:
as §5

Test [7] has as its target T7, EGFR InsNPG (D770_N771insNPG) transformed Ba/F3 cells (Homo sapiens, UniProt P00533, INS770NPG).
T7 construct: expressed in transfected cells; host or cells: Ba/F3
The experiment in a line: Proliferation inhibition assay, EGFR InsNPG transformed Ba/F3 cells. As to conditions: MTS assay, 72 hours. As to the method: as §2, §3, §4

The target of test [8] is T8, wild-type HER2 transformed Ba/F3 cells (Homo sapiens, UniProt P04626).
T8 construct: expressed in transfected cells; host or cells: Ba/F3
Description: Proliferation inhibition assay, wild-type HER2 transformed Ba/F3 cells. The conditions noted are these: MTS assay, 72 hours, Table 9 key. In a few lines:
as §1

Test [9] has as its target T9, HER2 InsYVMA (A775_G776insYVMA) transformed Ba/F3 cells (Homo sapiens, UniProt P04626, INS775YVMA).
T9 construct: expressed in transfected cells; host or cells: Ba/F3
Description: Proliferation inhibition assay, HER2 InsYVMA transformed Ba/F3 cells. The conditions noted are these: MTS assay, 72 hours, Table 9 key. Put shortly: as §5

In test [10] the target is T10, HER2 InsVC (G776delinsVC) transformed Ba/F3 cells (Homo sapiens, UniProt P04626, G776C/INS775V).
T10 construct: expressed in transfected cells; host or cells: Ba/F3
The experiment in a line: Proliferation inhibition assay, HER2 InsVC transformed Ba/F3 cells. The conditions noted are these: MTS assay, 72 hours, Table 9 key. Here is the method:
as §2, §3, §4

Test [11] deals with T11, HER2 InsGSP (P780_Y781insGSP) transformed Ba/F3 cells (Homo sapiens, UniProt P04626, INS780GSP).
T11 construct: expressed in transfected cells; host or cells: Ba/F3
Description: Proliferation inhibition assay, HER2 InsGSP transformed Ba/F3 cells. The conditions noted are these: MTS assay, 72 hours, Table 9 key. As to the method:
as §2, §3, §4

In test [12] the target is T12, HER2 InsWLV transformed Ba/F3 cells (Homo sapiens, UniProt P04626, INS773WL/M774V).
T12 construct: expressed in transfected cells; host or cells: Ba/F3
Description: Proliferation inhibition assay, HER2 InsWLV transformed Ba/F3 cells. As to conditions: MTS assay, 72 hours, Table 9 key. Put shortly:
as §5

Test [13] has as its target T13, mutant EGFR L858R transformed Ba/F3 cells (Homo sapiens, UniProt P00533, L858R).
T13 construct: expressed in transfected cells; host or cells: Ba/F3
The experiment in a line: Proliferation inhibition assay, EGFR L858R transformed Ba/F3 cells.

Test [14] addresses mutant EGFR Exon19del transformed Ba/F3 cells (Homo sapiens, UniProt P00533, cells depend on it, form not given). The experiment in a line: Proliferation inhibition assay, EGFR Exon19del transformed Ba/F3 cells.
Test [15] concerns the target T14, mutant EGFR T790M/L858R transformed Ba/F3 cells (Homo sapiens, UniProt P00533, L858R/T790M).
T14 construct: expressed in transfected cells; host or cells: Ba/F3
Description: Proliferation inhibition assay, EGFR T790M/L858R transformed Ba/F3 cells.

The target of test [16] is mutant EGFR T790M/exon19del transformed Ba/F3 cells (Homo sapiens, UniProt P00533, T790M, cells depend on it, form not given). The experiment in a line: Proliferation inhibition assay, EGFR T790M/exon19del transformed Ba/F3 cells.
The target in test [17] is T1, wild-type EGFR transformed Ba/F3 cells. Description: Western blot, EGFR phosphorylation, wild-type EGFR Ba/F3 cells. As to conditions: indicated concentrations, 6 hours of treatment. In general terms: Immunoblotting shows a protein as a band on a membrane.
Description: (§6) Cells are seeded and grow in culture plates, and then treated with representative compounds of the application the following day for various duration. Cells are washed with PBS and lysed.
(§7) Cells were plated at 5×10^5 cells per well in 6-well plates and treated with representative compounds of the application the following day. After 6 hours of treatment, cells were washed with PBS and lysed with NP40 buffer (Calbiochem®) supplemented with Complete™ Mini protease inhibitor and PhosSTOP™ phosphatase inhibitors (Rocheg).
(§8) Western blot analysis was then performed on the cells. The cells were plated at 5×10^5 cells per well in 6-well plates and treated with the indicated concentrations of the compound.
(§9) After 6 hours of treatment, cells were washed with PBS and lysed with NP40 buffer (Calbiochem) supplemented with Complete Mini protease inhibitor and PhosSTOP phosphatase inhibitors (Roche).
Test [18] concerns the target T15, EGFR InsGY transformed Ba/F3 cells (Homo sapiens, UniProt P00533, D770Y/INS769G).
T15 construct: expressed in transfected cells; host or cells: Ba/F3
Description: Western blot, EGFR phosphorylation, EGFR InsGY Ba/F3 cells. The conditions noted are these: indicated concentrations, 6 hours of treatment.
Description: as §6, §7, §8, §9

The target of test [19] is T16, EGFR InsSVD transformed Ba/F3 cells (Homo sapiens, UniProt P00533, INS770SVD).
T16 construct: expressed in transfected cells; host or cells: Ba/F3
Description: Western blot, EGFR phosphorylation, EGFR InsSVD Ba/F3 cells. As to conditions: indicated concentrations, 6 hours of treatment.
Description: as §6, §7, §8, §9

T11 sequence (P04626 with tags, fused parts or gaps INS780GSP): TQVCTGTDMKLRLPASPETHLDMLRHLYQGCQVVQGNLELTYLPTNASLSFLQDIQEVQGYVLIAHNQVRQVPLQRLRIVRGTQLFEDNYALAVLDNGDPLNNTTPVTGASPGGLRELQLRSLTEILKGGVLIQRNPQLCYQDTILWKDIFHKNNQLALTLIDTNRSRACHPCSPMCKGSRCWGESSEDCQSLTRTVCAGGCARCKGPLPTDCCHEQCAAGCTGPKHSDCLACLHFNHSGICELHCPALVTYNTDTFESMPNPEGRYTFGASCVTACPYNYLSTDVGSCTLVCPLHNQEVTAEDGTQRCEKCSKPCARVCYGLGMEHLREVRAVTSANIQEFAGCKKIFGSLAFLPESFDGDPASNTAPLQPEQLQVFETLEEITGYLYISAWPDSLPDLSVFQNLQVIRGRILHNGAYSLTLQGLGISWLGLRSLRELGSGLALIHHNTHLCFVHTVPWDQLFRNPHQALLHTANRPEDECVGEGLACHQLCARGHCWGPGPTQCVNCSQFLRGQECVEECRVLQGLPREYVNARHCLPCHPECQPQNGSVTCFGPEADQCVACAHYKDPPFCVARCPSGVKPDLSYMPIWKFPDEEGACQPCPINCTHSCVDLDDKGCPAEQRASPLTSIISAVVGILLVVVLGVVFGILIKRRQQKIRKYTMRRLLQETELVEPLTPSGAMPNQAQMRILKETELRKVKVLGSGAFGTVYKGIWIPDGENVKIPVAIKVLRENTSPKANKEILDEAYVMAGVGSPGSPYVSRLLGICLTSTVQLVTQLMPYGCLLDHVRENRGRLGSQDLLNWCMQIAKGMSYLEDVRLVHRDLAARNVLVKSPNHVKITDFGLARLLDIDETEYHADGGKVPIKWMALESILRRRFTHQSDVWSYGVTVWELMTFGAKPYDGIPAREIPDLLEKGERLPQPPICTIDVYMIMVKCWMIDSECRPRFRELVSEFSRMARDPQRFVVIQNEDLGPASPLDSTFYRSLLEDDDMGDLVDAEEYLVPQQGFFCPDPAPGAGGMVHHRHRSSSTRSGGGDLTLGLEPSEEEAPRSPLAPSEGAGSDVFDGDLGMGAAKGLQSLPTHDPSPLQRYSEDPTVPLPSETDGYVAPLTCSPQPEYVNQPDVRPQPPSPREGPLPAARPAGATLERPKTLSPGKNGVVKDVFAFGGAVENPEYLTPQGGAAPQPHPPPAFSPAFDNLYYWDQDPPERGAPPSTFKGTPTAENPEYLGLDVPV
T10 sequence (P04626 with tags, fused parts or gaps INS775V/G776C): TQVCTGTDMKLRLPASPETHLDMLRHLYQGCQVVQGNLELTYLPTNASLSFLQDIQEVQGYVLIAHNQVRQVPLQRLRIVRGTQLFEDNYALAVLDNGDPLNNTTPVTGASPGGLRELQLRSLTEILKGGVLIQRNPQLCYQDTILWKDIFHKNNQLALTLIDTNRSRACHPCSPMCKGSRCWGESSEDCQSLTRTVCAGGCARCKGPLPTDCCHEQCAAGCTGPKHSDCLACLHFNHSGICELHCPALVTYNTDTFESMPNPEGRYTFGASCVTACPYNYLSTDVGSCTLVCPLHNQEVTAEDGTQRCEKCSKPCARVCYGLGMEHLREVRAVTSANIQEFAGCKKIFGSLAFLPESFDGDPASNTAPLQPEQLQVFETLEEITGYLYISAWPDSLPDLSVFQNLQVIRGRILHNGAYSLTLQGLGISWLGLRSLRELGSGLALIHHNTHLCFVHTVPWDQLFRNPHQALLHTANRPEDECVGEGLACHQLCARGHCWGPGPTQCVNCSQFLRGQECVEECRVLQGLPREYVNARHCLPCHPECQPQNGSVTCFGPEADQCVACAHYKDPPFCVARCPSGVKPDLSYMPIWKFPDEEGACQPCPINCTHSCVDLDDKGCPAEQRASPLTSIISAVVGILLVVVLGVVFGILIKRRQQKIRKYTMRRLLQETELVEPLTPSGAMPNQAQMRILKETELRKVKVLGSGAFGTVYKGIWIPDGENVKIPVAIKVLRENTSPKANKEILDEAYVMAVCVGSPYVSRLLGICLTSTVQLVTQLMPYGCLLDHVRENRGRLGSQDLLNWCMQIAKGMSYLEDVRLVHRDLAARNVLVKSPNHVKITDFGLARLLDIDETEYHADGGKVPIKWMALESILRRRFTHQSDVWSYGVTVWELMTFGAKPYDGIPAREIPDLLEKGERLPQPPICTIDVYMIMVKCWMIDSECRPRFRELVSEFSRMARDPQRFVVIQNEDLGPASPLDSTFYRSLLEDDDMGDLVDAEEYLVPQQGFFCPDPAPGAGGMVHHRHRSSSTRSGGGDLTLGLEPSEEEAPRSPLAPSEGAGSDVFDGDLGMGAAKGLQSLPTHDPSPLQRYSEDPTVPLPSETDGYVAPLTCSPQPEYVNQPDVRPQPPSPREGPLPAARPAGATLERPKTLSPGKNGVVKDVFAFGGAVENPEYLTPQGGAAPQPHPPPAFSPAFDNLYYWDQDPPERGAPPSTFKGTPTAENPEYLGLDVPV
T9 sequence (P04626 with tags, fused parts or gaps INS775YVMA): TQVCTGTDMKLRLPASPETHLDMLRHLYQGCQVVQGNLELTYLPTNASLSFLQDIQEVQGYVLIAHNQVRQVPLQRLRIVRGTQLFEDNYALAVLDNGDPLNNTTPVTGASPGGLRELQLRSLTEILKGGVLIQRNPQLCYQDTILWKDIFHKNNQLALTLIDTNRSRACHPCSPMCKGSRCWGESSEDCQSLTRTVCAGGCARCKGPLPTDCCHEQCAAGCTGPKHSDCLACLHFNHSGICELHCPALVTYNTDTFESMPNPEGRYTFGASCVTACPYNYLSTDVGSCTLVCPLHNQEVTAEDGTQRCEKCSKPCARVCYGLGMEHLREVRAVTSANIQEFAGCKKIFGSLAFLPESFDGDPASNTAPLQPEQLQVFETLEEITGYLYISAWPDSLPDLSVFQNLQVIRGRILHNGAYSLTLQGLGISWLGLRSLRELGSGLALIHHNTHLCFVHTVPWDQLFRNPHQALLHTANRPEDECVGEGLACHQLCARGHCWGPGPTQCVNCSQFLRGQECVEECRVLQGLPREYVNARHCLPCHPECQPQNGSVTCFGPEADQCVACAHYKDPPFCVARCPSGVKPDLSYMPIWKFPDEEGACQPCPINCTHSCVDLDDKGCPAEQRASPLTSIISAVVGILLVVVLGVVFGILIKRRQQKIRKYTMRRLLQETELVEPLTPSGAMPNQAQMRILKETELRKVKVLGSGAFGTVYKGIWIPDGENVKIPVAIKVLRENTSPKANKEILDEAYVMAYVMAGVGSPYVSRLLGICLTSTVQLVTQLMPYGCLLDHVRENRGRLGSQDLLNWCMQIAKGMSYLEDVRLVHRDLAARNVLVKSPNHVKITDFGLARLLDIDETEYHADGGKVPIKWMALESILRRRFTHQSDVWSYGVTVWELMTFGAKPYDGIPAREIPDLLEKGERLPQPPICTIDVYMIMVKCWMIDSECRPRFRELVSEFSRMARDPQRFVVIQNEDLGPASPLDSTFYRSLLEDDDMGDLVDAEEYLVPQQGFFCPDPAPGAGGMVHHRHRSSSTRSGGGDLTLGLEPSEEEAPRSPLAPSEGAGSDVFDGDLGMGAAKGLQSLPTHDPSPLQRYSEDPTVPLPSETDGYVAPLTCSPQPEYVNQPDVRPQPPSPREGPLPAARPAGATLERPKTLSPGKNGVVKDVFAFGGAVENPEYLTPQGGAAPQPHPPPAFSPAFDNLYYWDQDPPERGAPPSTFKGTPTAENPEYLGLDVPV
T8 sequence (P04626 23-1255): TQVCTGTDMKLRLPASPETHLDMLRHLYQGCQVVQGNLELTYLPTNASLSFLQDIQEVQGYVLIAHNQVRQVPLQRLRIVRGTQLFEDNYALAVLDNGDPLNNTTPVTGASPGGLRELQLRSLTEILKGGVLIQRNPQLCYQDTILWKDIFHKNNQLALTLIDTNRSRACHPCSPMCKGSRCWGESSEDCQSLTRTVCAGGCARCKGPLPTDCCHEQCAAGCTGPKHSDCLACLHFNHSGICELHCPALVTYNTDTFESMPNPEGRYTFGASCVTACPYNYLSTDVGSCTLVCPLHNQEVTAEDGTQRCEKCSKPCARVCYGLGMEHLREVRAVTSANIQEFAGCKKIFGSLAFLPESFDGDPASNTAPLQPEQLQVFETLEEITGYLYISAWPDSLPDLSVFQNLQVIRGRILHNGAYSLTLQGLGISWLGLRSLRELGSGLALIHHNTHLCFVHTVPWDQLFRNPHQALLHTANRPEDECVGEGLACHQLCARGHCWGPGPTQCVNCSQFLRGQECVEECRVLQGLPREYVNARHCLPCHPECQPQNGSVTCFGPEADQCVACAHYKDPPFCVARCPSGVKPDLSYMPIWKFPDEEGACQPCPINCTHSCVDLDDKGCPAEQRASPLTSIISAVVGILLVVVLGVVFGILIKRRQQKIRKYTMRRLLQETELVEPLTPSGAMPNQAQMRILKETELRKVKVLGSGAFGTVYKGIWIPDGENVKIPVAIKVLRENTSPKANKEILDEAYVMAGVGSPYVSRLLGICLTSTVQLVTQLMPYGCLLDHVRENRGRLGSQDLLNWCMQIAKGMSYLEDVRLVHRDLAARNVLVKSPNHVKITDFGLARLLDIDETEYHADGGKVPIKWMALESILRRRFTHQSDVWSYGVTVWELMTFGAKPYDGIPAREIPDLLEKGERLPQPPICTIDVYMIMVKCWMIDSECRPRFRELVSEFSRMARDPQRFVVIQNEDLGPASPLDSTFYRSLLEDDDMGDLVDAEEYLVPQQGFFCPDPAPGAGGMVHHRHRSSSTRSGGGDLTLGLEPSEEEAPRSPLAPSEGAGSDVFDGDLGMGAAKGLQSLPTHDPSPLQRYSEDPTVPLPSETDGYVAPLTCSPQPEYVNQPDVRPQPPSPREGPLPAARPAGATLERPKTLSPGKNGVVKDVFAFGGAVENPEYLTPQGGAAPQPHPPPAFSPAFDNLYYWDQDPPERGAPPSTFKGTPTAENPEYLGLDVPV

Turning to `C=CC(=O)Nc1cccc(-n2c(=O)c(Oc3ccc(F)cc3F)cc3cnc(Nc4cnn(C)c4)nc32)c1` [Compound 2], the EC50 in test [1], in test [2], in test [3], in [4], in [5] and in [6] was less than 200 nM each time. Further, the half-maximal effective concentration (EC50) in test [7] is less than 200 nM; in test [8] it was less than 100 nM; in test [9], less than 100 nM; in test [10], less than 100 nM; in test [11] it was less than 100 nM; in test [12], less than 100 nM. Besides, the EC50 in [13], in test [14], in [15] and in test [16] was less than 100 nM throughout. Besides, the “EGFR phosphorylation (Western blot, FIG. 1)” value in test [17], in test [18] and in [19] was “decrease in EGFR phosphorylation” each time.

In the case of `C=CC(=O)N1CCC(Cn2c(=O)c(Oc3ccc(F)cc3F)cc3cnc(Nc4cnn(C)c4)nc32)C1` (stereo not shown) [Compound 26], the EC50 in test [1] was less than 200 nM; in test [2], less than 200 nM; in test [3], less than 200 nM; in test [4], less than 200 nM; in test [5] it was 600 to 1000 nM; in test [6], greater than 1000 nM. Further, the EC50 in [7] is less than 200 nM; in test [8] it was less than 100 nM; in test [9] it was greater than 500 nM; in test [10], 250 to 500 nM; in test [11], less than 100 nM; in [12], 100 to 250 nM.

Turning to `C=CC(=O)Nc1cc(Nc2ncc3cc(Oc4ccc(F)cc4F)c(=O)n(C)c3n2)c(OC)cc1N(C)CCN(C)C` [Compound 29, N-(5-((6-(2,4-difluorophenoxy)-8-methyl-7-oxo-7,8-dihydropyrido[2,3-d]pyrimidin-2-yl)amino)-2-((2-(dimethylamino)ethyl)(methyl)amino)-4-methoxyphenyl)acrylamide], the half-maximal effective concentration (EC50) in test [1], in [2], in test [3], in test [4], in [5] and in [6] was less than 200 nM in each case. In addition, the EC50 in test [7] is less than 200 nM; in test [8] it was less than 100 nM; in test [9], less than 100 nM; in test [10], less than 100 nM; in test [11], less than 100 nM; in test [12] it was less than 100 nM.

The values are drawn from patent publication US11945816B2, “Inhibitors of EGFR and/or HER2 and methods of use” (Dana-Farber Cancer Institute, Inc., priority 2017, dated 2024).
